Test system: electrical stimulation induced occlusive aortic thrombosis
Experiment: Thrombolytic activity in a rat model of electrical stimulation induced occlusive aortic thrombosis
Format: in vivo, CD rats
Conditions: for Area under the curve (cm^2 ± s.e.m.): area under the blood flow trace; for Area under the curve (cm^2 ± s.e.m.) / Number of animals showing thrombolyis: n=8; for Thrombolytic activity (result in words): in the absence of exogenous plasminogen activators
Method: The compounds which are usable according to the invention were studied in rats for their activity as thrombolytic agents in a model of electrical stimulation induced occlusive aortic thrombosis.
CD rats weighing 450 g to 500 g are anaesthetized with sodium pentobarbital (60 mg/kg i.p.) and the left renal artery is catheterized. Thrombosis is induced according to the method described by Hladovec (Throm. Haemosts. (1971), 26, 407-410). A segment of abdominal aorta approximately 1 cm in length is exposed between the renal artery and the iliac bifurcation, and an electromagnetic flow probe is placed around this segment to measure blood flow rate, and a bipolar electrode is placed downstream of the probe. After 15 minutes of stabilisation, a 5 mA direct current is applied for 5 minutes to the outer surface of the artery using a stimulator. When the flow rate reaches the zero value, previously determined by clamping the artery between the probe and the electrode, the time to formation of an occlusive thrombus is noted. After 5 minutes of stabilisation of the thrombus, the test compound or the vehicle is injected via the catheter as a 0.5 ml bolus followed by a 60 minute perfusion at 0.1 ml/min. The blood flow rate is recorded during the perfusion period. Thrombolysis is estimated by measuring the area under the blood flow trace, which reflects both the time to, and the extent of recanalisation. The results are expressed as a mean #standard error of the mean.
In animals receiving the vehicle, the abdominal aorta remains occluded throughout the period of administration. In contrast, direct acting thrombin inhibitors increase the area under the curve in a dose-dependent manner and rapidly restore blood flow.

[1] = dose 100 + 20 μg/kg + μg/kg/min
[2] = dose 100 + 20 μg/kg + μg/kg/min (bolus + 60 minute perfusion)
[3] = dose 200 + 40 μg/kg + μg/kg/min
[4] = dose 200 + 40 μg/kg + μg/kg/min (bolus + 60 minute perfusion)
[5] = dose 400 + 80 μg/kg + μg/kg/min

SMILES	% Increase (area under the curve vs vehicle) [1] [%]	Area under the curve (cm^2 ± s.e.m.) [2] [cm^2]	Number of animals showing thrombolyis [1]	% Increase (area under the curve vs vehicle) [3] [%]	Area under the curve (cm^2 ± s.e.m.) [4] [cm^2]	Number of animals showing thrombolyis [3]	% Increase (area under the curve vs vehicle) [5] [%]	Area under the curve (cm^2 ± s.e.m.) (dose 400 + 80 μg/kg + μg/kg/min (bolus + 60 minute perfusion)) [cm^2]	Number of animals showing thrombolyis [5]	Thrombolytic activity (result in words)	% Increase (area under the curve vs vehicle) (dose 50 + 10 μg/kg + μg/kg/min) [%]	Area under the curve (cm^2 ± s.e.m.) (dose 50 + 10 μg/kg + μg/kg/min (bolus + 60 minute perfusion)) [cm^2]	Number of animals showing thrombolyis (dose 50 + 10 μg/kg + μg/kg/min)	% Increase (area under the curve vs vehicle) (dose 25 + 5 μg/kg + μg/kg/min) [%]	Area under the curve (cm^2 ± s.e.m.) (dose 25 + 5 μg/kg + μg/kg/min (bolus + 60 minute perfusion)) [cm^2]	Number of animals showing thrombolyis (dose 25 + 5 μg/kg + μg/kg/min)
CC(=O)N[C@H](Cc1ccccc1)C(=O)N1CCC[C@H]1C(=O)N[C@@H](CCCN=C(N)N)B(O)O [DUP714, Ac-(D-Phe)-Pro-boro-Arg-OH]	620	339.7 ± 84.7	5	667	362.3 ± 61.1	7	1118	575.3 ± 99.0	8	have shown thrombolytic activity	–	–	–	–	–	–
NC(N)=NCCC[C@H](NC(=O)[C@@H]1CCCN1C(=O)[C@H](N)Cc1ccccc1)C(=O)CCl [PPACK, D-Phe-Pro-Arg chloromethyl ketone]	556	284.8 ± 98.9	5	1148	542.7 ± 75.2	7	–	–	–	have shown thrombolytic activity	572	291.7 ± 96.5	5	–	–	–
CC1CNc2c(cccc2S(=O)(=O)N[C@@H](CCCNC(=N)N)C(=O)N2CC[C@@H](C)C[C@@H]2C(=O)O)C1 (stereo partly drawn) [Argatroban, argatroban]	406	181.1 ± 99.6	3	1186	460.3 ± 86.5	7	–	–	–	have shown thrombolytic activity	–	–	–	284	137.5 ± 45.6	4

From patent US5583113A, “Use of a direct-acting thrombin inhibitor for the manufacture of a medicinal product having thrombolytic activity” (Synthelabo, priority 1992, dated 1996)
